Experimental findings from patent publication US20220268780A1, “METHODS OF PREDICTING ENDOMETRIAL RECEPTIVITY” (HUDSON INSTITUTE OF MEDICAL RESEARCH, priority 2019, published 2022) are described below.

The subject of this data set is PCX mRNA in Ishikawa cells. Briefly: Transfection of miRNA mimics into Ishikawa cells, PCX mRNA by real-time RT-PCR. As to conditions: mimic 5 μm, 24 h after transfection. Format: cell-based, human. As to the method: To confirm that these two miRNAs can directly down-regulate PCX, mimics of these miRNAs were transfected into a human endometrial epithelial Ishikawa cell line and the impact on the level of PCX expression examined.
Ishikawa cells were cultured overnight in a 12-well plate (3.0×10^5 per well) in complete medium containing MEM (Thermo Fisher Scientific) supplemented with 10% FCS, 1% L-glutamine (Sigma) and 1% antibiotic-antimycotic. The following day, cells were replenished with Opti-MEM for transfection. Control and miRNA mimics (5 μm, all from Thermo Fisher Scientific) were transfected into Ishikawa cells using Lipofectamine RNAiMAX Transfection Reagent (Thermo Fisher Scientific) for 24, 48, 72 h respectively, and PCX mRNA levels were examined by real-time RT-PCR. Combination of the two miRNAs (5 μm each) was also tested.

Consider “miR-145: miRNA mimic (Thermo Fisher Scientific); sequence GUCCAGUUUUCCCAGGAAUCCCU, SEQ ID NO: 33 (chemistry not given here)”, for which the “repression of PCX mRNA” value was around 34%.
As to “miR-199: miRNA mimic (Thermo Fisher Scientific); sequence CCCAGUGUUCAGACUACCUGUUC, SEQ ID NO: 31 (chemistry not given here)”, the “repression of PCX mRNA” value is around 34%.
